Results taken from patent publication US7824745B2, “Benzochromene derivatives” (Merck Patent GmbH, priority 2005, dated 2010).

Key:
[1] = Dielectric anisotropy Δ∈ of the compounds, dissolved in a liquid-crystalline host, capacitance at 1 kHz, extrapolated to 100%; assay type: physicochemical; details: extrapolated from 5% solution in ZLI-2857, 20° C.
Description: In the present application, the term dielectrically positive compounds denotes compounds having a Δ∈ of >1.5, the term dielectrically neutral compounds denotes those in which −1.5≦Δ∈≦1.5, and the term dielectrically negative compounds denotes those having a Δ∈ of <−1.5. The […] of this mixture at 1 kHz in at least one test cell with a layer thickness of about 20 μm having a homeotropic surface alignment and at least one test cell with a layer thickness of about 20 μm having a homogeneous surface alignment. The measurement voltage is typically 0.5 V to 1.0 V, but is always less than the capacitive threshold of the respective liquid-crystal mixture. […]
(§1) All concentrations in this application, unless explicitly stated otherwise, are indicated in percent by weight and relate to the corresponding mixture as a whole. All physical properties are and have been determined in accordance with “Merck Liquid Crystals, Physical Properties of Liquid Crystals”, status November 1997, Merck KGaA, Germany, and apply to a temperature of 20° C., unless explicitly stated otherwise. An is determined at 589 nm and Δ∈ at 1 kHz.
(§2) The following examples are intended to explain the invention without limiting it. […] V10, V50 and V90 (the threshold voltage, mid-grey voltage and saturation voltage respectively) and V0 (the capacitive threshold voltage) were each determined at 20° C.

[2] = Optical anisotropy Δn (589 nm, 20° C.), host mixture ZLI-4792; assay type: physicochemical; details: 5% in ZLI-4792
Description: The host mixture used for determining the applicationally relevant physical parameters is ZLI-4792 from Merck KGaA, Germany. As an exception, the determination of the dielectric anisotropy of dielectrically negative compounds is carried out using ZLI-2857, likewise from Merck KGaA, Germany. The values for the respective compound to be investigated are obtained from the change in the properties, for example the dielectric constants, of the host mixture after addition of the compound to be investigated and extrapolation to 100% of the compound employed. […]
as §1
as §2, with “it. Above and below, percentages are percent by weight.” for “it.”

In the case of `CCCC1CCc2c(c(=O)oc3cc(OCC)ccc23)C1` (stereo not drawn) [Example 1.1, 3-ethoxy-8-propyl-7,8,9,10-tetrahydrobenzo[c]chromen-6-one], the “Δ∈” value [1] was −7.5, the melting point was 108 °C and the Δn [2] was 0.1302.
